Consider 47 molecules from patent EP1935887A1, “Heterocyclic substituted carbonyl derivatives and their use as dopamine D3 receptor ligands” (Aventis Pharmaceuticals Inc., priority 2001, dated 2002).

Read-outs that look alike come from different tables or passages of the source.

In the assay the target is T1, Cloned Human Dopamine D3 Receptors (Homo sapiens, UniProt P35462).
T1 construct: expressed in transfected cells; membrane homogenate
Put plainly: [N-Methyl-3H]Spiroperidol binding to cloned human dopamine D3 receptors. The source says:
[N-Methyl-^3H]Spiroperidol Binding to Cloned Human Dopamine D3 Receptors
This assay measures the in vitro activity of compounds on cloned human dopamine (D3) receptors and predicts the direct dopamine-blocking properties of putative neuropsychiatric agents at human dopamine D3 receptors.
The D3 gene was isolated from a human striatal cDNA library (Stratagene). The gene was sequenced and sub-cloned into the expression vector RC/RSV (Invitrogen). CHO (Chinese Hamster Ovary) cells were stably transfected with 10 µg of the D3/RSV plasmid using the DOTAP method from Boehringer Mannheim and 72 clones that were G418 resistant were isolated. Using mRNA and binding displacement data a single high expressing clone was identified. This clone was then grown in large batches for the purpose of developing a 96 well format assay.
• 1. One plate (10 cm) with approximately 2-3 million D3 cells per plate is incubated with 1 ml of Trypsin-EDTA at room temperature for -2 min or until cells have lifted off plates. Four ml of Ham's F12 + 10% Fetal Bovine Serum + 1% Penicillin/Streptomycin + G418 (400 µg/ml) medium are added to resuspend cells and 1 ml of this is added to each large plate (15 cm) containing 19 ml of the same medium as mentioned above. • 2. The 5 large plates are incubated at 37°C + 5% CO2 for - 3 days or until the cells are confluent. • 3. After these plates are confluent, they are split into 10 large plates. Medium is aspirated off, 2 ml of Trypsin-EDTA are added to each plate and plates are incubated at RT for 2 min or until cells have lifted off the plate. Eight ml of the F12 medium (same medium as #1 above) are added to each plate (10 ml total) to resuspend the cells and 5 ml are transferred to the 2 new plates containing 15 ml of the F12 media. • 4. The 10 large plates are incubated at 37°C + 5% CO2 for ∼ 2 days or until the cells are confluent. • 5. The 10 large plates are split into 60 large plates (using Trypsin-EDTA as #3 except 4 ml of F12 medium are added to resuspend cells and 1 ml is aliquoted to 6 new plates containing 19 ml of F12 medium each). • 6. Plates are incubated at 37°C + 5% CO2 for - 3 days or until cell are confluent. • 7. The 60 large plates are then split into 60 roller bottles (100-150 million cells/bottle). Medium is aspirated off , 2 ml of Trypsin-EDTA are added to each plate and incubated at RT for -2 minutes or until cells have lifted off plates. Eight ml of F12 medium are added to each plate to resuspend cells and the entire 10 ml are added to 1 roller bottle containing 90 ml of the F12 medium. • 8. The 60 roller bottles are immediately placed on their sides and transferred to the roller bottle incubator. They are incubated at 37°C + 5% CO2 for ~ 3-5 days. Cells are spun at 30-40% motor speed in the Forma incubator. • 9. Medium is poured off and cells are washed 2X in PBS. • 10. Cells are then scraped off in 20 ml of PBS and the bottles are rinsed again with 5 ml of PBS to remove any remaining cells. Cells are stored on ice before membrane prepration. • 11. The yield for 60 D3 roller bottles has varied from - 260-500 mg. Note: All tissue culture reagents are from Gibco-BRL.
The cells are harvested into 250 ml centrifuge tubes with 100 volumes of cold phosphate buffered saline (PBS) and spun down (1200xG for 10 min at 4°C). The medium is removed and 100 ml PBS are added to each centrifuge tube, cells are resuspened and spun down again. The PBS is removed and the final pellet is homogenized in an appropriate volume of 10% DMSO with a polytron on ice at a medium setting.
A 200 µl sample membrane homogenate is added to 200 µl of 1% SDS, vortexed and allowed to stand for 5 min. Aliquots (25, 50 and 100 µl) of this mixture are assayed in duplicate following the standard Bio-Rad DC protein assay protocol (kit catalog number 500-0112) and using reagent S. Absorbance readings are made at 750 nm (note: the most accurate protein OD readings are between 0.1-0.5 units). […]

The mark [1] stands for this setting: Table 2, unit inferred, read-out: d3Ki.

T1 sequence (P35462 whole entry): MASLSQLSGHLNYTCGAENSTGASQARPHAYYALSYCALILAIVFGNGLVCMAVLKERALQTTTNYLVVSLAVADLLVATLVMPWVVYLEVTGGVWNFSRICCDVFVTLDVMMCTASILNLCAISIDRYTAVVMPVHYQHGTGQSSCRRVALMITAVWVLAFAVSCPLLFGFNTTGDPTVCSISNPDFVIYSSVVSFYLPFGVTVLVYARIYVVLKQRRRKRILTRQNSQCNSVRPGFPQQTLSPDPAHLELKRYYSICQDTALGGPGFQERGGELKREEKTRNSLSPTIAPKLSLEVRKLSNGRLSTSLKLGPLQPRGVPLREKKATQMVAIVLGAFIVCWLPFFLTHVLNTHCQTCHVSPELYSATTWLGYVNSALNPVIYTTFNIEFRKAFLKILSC

In the case of `CN1CCCC1CCNC(=O)[C@@H]1C[C@H]1CN1CCC(c2noc3ccsc23)CC1` (mixture of isomers) [compound 831936], for the setting “read-out: D3 Ki”, the Ki turned out to be 34.7 nM.
`CC(C)(C)OC(=O)N1CCCC(CNC(=O)[C@@H]2C[C@H]2CN2CCC(c3noc4ccsc34)CC2)C1` (mixture of isomers) [compound 833374]: the Ki (read-out: D3 Ki) stood at 30.6 nM.
Turning to `O=C(NCC1CCCNC1)[C@@H]1C[C@H]1CN1CCC(c2noc3ccsc23)CC1` (mixture of isomers) [compound 833385], for the setting “read-out: D3 Ki”, the Ki is 3.31 nM.
With `C[C@H]1CC[C@H](NC(=O)[C@@H]2C[C@H]2CN2CCC(c3cc4ccccc4s3)CC2)CC1` (relative stereo) [compound 831148, 2R-(4-Benzo[b]thiophen-2-yl-piperidin-1-ylmethyl)-1R-cyclopranecarboxylic acid (trans-4-methyl-cyclohexyl)-amide], the Ki (read-out: D3 Ki) was found to be 0.454 nM.
Molecule `CN1CCCC1CCNC(=O)[C@H]1C[C@@H]1CN1CCC(c2noc3ccsc23)CC1` (single isomer, unassigned) [compound 832514] showed a Ki (D3 Ki (nM)) of 115 nM.
With `O=C(N[C@H]1CC[C@H](C(=O)O)CC1)[C@@H]1C[C@H]1CN1CCN(c2csc3cc(C(F)(F)F)ccc23)CC1` [816078A], the Ki (read-out: d3Ki) stood at 89.7 nM.
In the case of `CC1CCC(NC(=O)C2CC2CN2CCN(c3ccc(C(F)(F)F)cc3)CC2)CC1` (centres unmarked) [817039A], under setting [1], the Ki is 35 nM.
On to `CCC1CCC(NC(=O)C2CC2CN2CCN(c3ccc(C(F)(F)F)cc3)CC2)CC1` (centres unmarked) [817043A], for which the Ki under setting [1] was determined as 18.6 nM.
In the case of `CC[C@H]1CC[C@H](NC(=O)[C@@H]2C[C@H]2CN2CCN(c3ccc(Cl)c(Cl)c3)CC2)CC1` [817090A], the Ki under setting [1] worked out at 5.04 nM.
In the case of `CC[C@H]1CC[C@H](NC(=O)[C@@H]2C[C@H]2CN2CCN(c3cc(C)ccc3C)CC2)CC1` [817102A], the Ki under setting [1] was 7.57 nM.
Regarding `Cc1ccccc1N1CCN(C[C@@H]2C[C@H]2C(=O)N[C@H]2CC[C@H](C)CC2)CC1` [817478A], under setting [1], the Ki was 1.99 nM.
Turning to `CCC1CCC(NC(=O)C2CC2CN2CCN(c3ncc(C(F)(F)F)cc3Cl)CC2)CC1` (centres unmarked) [817480A], under setting [1], the Ki worked out at 5.33 nM.
For `C[C@H]1CC[C@H](NC(=O)[C@@H]2C[C@H]2CN2CCN(c3csc4cc(C(F)(F)F)ccc34)CC2)CC1` [817569A], under setting [1], the Ki turned out to be 5.38 nM.
In the case of `CCC1CCC(NC(=O)C2CC2CN2CCN(c3cc(C)ccc3C)CC2)CC1` (centres unmarked) [817570A], the Ki under setting [1] worked out at 5.04 nM.
As to `CCC1CCC(NC(=O)C2CC2CN2CCN(c3ccc(C)cc3C)CC2)CC1` (centres unmarked) [817571A], the Ki under setting [1] came to 11.5 nM.
The molecule `C[C@H]1CC[C@H](NC(=O)[C@@H]2C[C@H]2CN2CCN(c3noc4ccsc34)CC2)CC1` [817892A] returned a Ki (d3Ki, Table 2, unit inferred) of 3.02 nM.
`O=C(NCc1nc2ccccc2[nH]1)[C@@H]1CCC[C@H]1N1CCN(c2csc3cc(F)ccc23)CC1` [825826G]: for the setting “read-out: d3Ki”, the Ki is 32.5 nM.
Consider `O=C(NCC1CC1)[C@@H]1CCC[C@H]1N1CCN(c2csc3cc(F)ccc23)CC1` [825829G], for which the Ki (read-out: d3Ki) turned out to be 40.1 nM.
On the same count and under the same terms, with `O=C(NCc1cccnc1)[C@@H]1CCC[C@H]1N1CCN(c2csc3cc(F)ccc23)CC1` [825834G] the figure was 6.9 nM.
On to `O=C(NC1CCN(CCc2cccc(Cl)c2)CC1)C1CC1CN1CCC(c2noc3ccsc23)CC1` (centres unmarked) [832573FH], for which, under “D3 Ki (nM)”, the Ki was 4.52 nM.
As for `O=C(NCCCc1nc2ccccc2[nH]1)[C@@H]1C[C@H]1CN1CCC(c2noc3ccsc23)CC1` [832574FH], where the note is “D3 Ki (nM)”, the Ki was 57.3 nM.
Regarding `COCCN1CCN(C(=O)[C@@H]2C[C@H]2CN2CCN(c3nn(C)c4ccc(OC)cc34)CC2)CC1` [832748FH], under “read-out: D3 Ki”, the Ki was determined as 79.1 nM.
As to `C[C@H]1CC[C@H](N2CC(CN3CCN(c4noc5ccsc45)CC3)CC2=O)CC1` (some centres unmarked) [832831 DA], the Ki (the 17th table, read-out: D3 Ki) was 154 nM.
In turn, `Cn1nc(C2CCN(C[C@@H]3C[C@H]3C(=O)NCCCN3CCCCC3)CC2)c2cc(C(F)(F)F)ccc21` [833585ES] yielded a Ki (D3 Ki (nM)) of 5.86 nM.
Regarding `C[C@H]1CC[C@H](NC(=O)[C@H]2C[C@@H]2CN2CCN(c3csc4cc(C(F)(F)F)ccc34)CC2)CC1` [(+)-816589], the Ki under setting [1] worked out at 1070 nM.
In the case of `C[C@H]1CC[C@H](NC(=O)[C@@H]2C[C@H]2CN2CCN(c3csc4cc(C(F)(F)F)ccc34)CC2)CC1` [(-)-817569], the Ki under setting [1] amounted to 2.62 nM.
For the molecule `O=C(NCCCN1CCCCC1)[C@@H]1C[C@H]1CN1CCN(c2nn(-c3ccc(C(F)(F)F)cc3)c3ccsc23)CC1` [A002201942], the Ki (read-out: D3 Ki) amounted to 30.2 nM.
As to `Cn1nc(N2CCN(C[C@@H]3C[C@H]3C(=O)NCCCN3CCOCC3)CC2)c2sccc21` [A002202402], the Ki (read-out: D3 Ki) came to 47.3 nM.
`CN1C2CCC1CC(NC(=O)C1CC1CN1CCC(c3nn(C)c4c(C(F)(F)F)cccc34)CC1)C2` (centres unmarked) [A002328941]: the Ki (D3 Ki (nM)) turned out to be 23.9 nM.
As for `O=C(NCCCN1CCCCC1)[C@@H]1C[C@H]1CN1CCC(c2nn(CC(F)(F)F)c3ccsc23)CC1` [A002328969], the Ki (read-out: D3 Ki) worked out at 137 nM.
Turning to `O=C([C@@H]1C[C@H]1CN1CCC(c2nn(CC(F)(F)F)c3ccsc23)CC1)N1CCC(Cn2ccnc2)CC1` [A002328970], the Ki (read-out: D3 Ki) amounted to 36.2 nM.
Take `Cn1nc(C2CCN(C[C@@H]3C[C@H]3C(=O)NCCCN3CCCCC3)CC2)c2cccc(C(F)(F)F)c21` [A002329092]: the Ki (read-out: D3 Ki) worked out at 321 nM.
Take `Cn1nc(C2CCN(C[C@@H]3C[C@H]3C(=O)NCCCn3ccnc3)CC2)c2cccc(C(F)(F)F)c21` [A002329093]: the Ki (read-out: D3 Ki) came out at 411 nM.
Still for that read-out and setting: under `Cn1nc(N2CCN(C[C@@H]3C[C@H]3C(=O)NCCCN3CCSCC3)CC2)c2sccc21` [A002350370] stands 81.2 nM.
Take `Cn1nc(C2CCN(C[C@@H]3C[C@H]3C(=O)N3CCC(Cn4ccnc4)CC3)CC2)c2sccc21` [A002436292]: the Ki (read-out: D3 Ki) was 129 nM.
On the same count and under the same terms, under `O=C(NC1CCN(Cc2ccc(F)c(F)c2)CC1)[C@@H]1C[C@H]1CN1CCN(c2nn(-c3ccc(OC(F)(F)F)cc3)c3ccsc23)CC1` [A002437083] stands 11 nM; under `O=C(NCCCn1ccnc1)[C@@H]1C[C@H]1CN1CCN(c2nc3cccc4c3n2CCC4)CC1` [A002437350], 16.2 nM.
On the same count and under the same terms, with `CN1CCN(CCCNC(=O)[C@@H]2C[C@H]2CN2CCN(c3nc4cccc5c4n3CCC5)CC2)CC1` [A002439100] the figure was 552 nM.
Still for that read-out and setting: with `CC(C)(C)OC(=O)N1CCC(CNC(=O)[C@@H]2C[C@H]2CN2CCC(c3noc4c(C(F)(F)F)cccc34)CC2)CC1` [A002439261] the figure was 55.3 nM.
As to `CN1CCN(CCCNC(=O)[C@@H]2C[C@H]2CN2CCC(c3nn(CC(F)(F)F)c4ccsc34)CC2)CC1` [A002439265], the Ki (read-out: D3 Ki) is 88 nM.
In the case of `O=C(CCCCN1CCN(c2csc3cc(F)ccc23)CC1)Nc1ccc(F)cc1` [compound 813384], the Ki under setting [1] was determined as 74 nM.
Consider `CCCN(C(=O)CCCCN1CCN(c2csc3cc(F)ccc23)CC1)c1ccc(F)cc1` [compound 814648], for which, under setting [1], the Ki stood at 39.6 nM.
Regarding `O=C(CCCCN1CCN(c2csc3cc(F)ccc23)CC1)N(Cc1ccccc1)c1ccc(F)cc1` [compound 814649], under setting [1], the Ki came to 38.9 nM.
Regarding `C[C@H]1CC[C@H](NC(=O)[C@@H]2C[C@H]2CN2CCN(c3csc4cc(C(F)(F)F)ccc34)CC2)CC1` [compound 815916], under setting [1], the Ki turned out to be 5 nM.
On the same count and under the same terms, with `CCOC(=O)[C@H]1CC[C@H](NC(=O)[C@@H]2C[C@H]2CN2CCN(c3csc4cc(C(F)(F)F)ccc34)CC2)CC1` [compound 815917] the figure was 18 nM; with `CC[C@H]1CC[C@H](NC(=O)[C@@H]2C[C@H]2CN2CCN(c3csc4cc(C(F)(F)F)ccc34)CC2)CC1` [compound 815918], 15 nM.
In the case of `O=C(N[C@H]1CC[C@H](O)CC1)[C@@H]1C[C@H]1CN1CCN(c2csc3cc(C(F)(F)F)ccc23)CC1` [compound 816592], where the note is “read-out: d3Ki”, the Ki amounted to 11 nM.
